Laboratory results taken from patent US8975441B2, “Process for preparing 2.2-dibromomalonamide” (Dow Global Technologies LLC, priority 2009, dated 2015).

Format: physicochemical
Conditions: pH 7
From the text: It has been discovered and is believed that the alkali earth metal base, which in some embodiments is part of the nitrile-amide-conversion composition, acts at basic pH values (i.e., at pH values greater than pH 7.0) to undesirably promote degradation of 2,2-dibromo-3-cyanoacetamide to undesirable products. […] As pH of the nitrile-amide-conversion composition becomes increasingly basic, the alkali earth metal base degrades increasing amounts of 2,2-dibromo-3-cyanoacetamide. This base-promoted degradation of 2,2-dibromo-3-cyanoacetamide is especially prevalent at pH 9.0 and higher. The invention process advantageously maintains pH of the reaction mixture in situ during conversion of 2,2-dibromo-3-cyanoacetamide to 2,2-dibromomalonamide in a pH range that minimizes or prevents base-promoted degradation of 2,2-dibromo-3-cyanoacetamide while at the same time facilitates the base-catalyzed conversion thereof to 2,2-dibromomalonamide.

NC(=O)C(Br)(Br)C(N)=O [2,2-dibromomalonamide]
stability relative to 2,2-dibromo-3-cyanoacetamide: ≥ 10 times
